Laboratory results reported in publication PMC7265639, “Freshwater viral metagenome reveals novel and functional phage-borne antibiotic resistance genes” (Microbiome, 2020).
In brackets after ≈: the same amount, converted by molar mass.

Tests used:
[1] = test system: T1, E. coli BL21 (DE3)-pET-28a(+)-HRVM-1; test: microbe, parasite or virus in culture; design: species or system Escherichia coli BL21 (DE3) transformants; agar dilution MIC on Mueller-Hinton agar with 1 mM IPTG; settings: Escherichia coli, read-out: MIC (μg/mL) for E. coli strain / E. coli BL21 (DE3)-pET-28a(+)-HRVM-1
T1 construct: BL21 (DE3) pET-28a(+)/blaHRVM-1-His6 transformant expressing HRVM-1 metallo-beta-lactamase
Description: (§1) When cultures of the cloned E. coli BL21 (DE3) cells reached approximately 0.6 at OD600, 1 mM isopropyl β-D-1-thiogalactopyranoside was added to induce expression of the blaHRV-1 or blaHRVM-1 gene followed by culture at 16 °C for 16 h. Susceptibility to benzylpenicillin, ampicillin, piperacillin, ticarcillin, oxacillin, cloxacillin, cephalothin, cefoxitin, cefotaxime, ceftazidime, cefepime, aztreonam, meropenem, imipenem (Sigma-Aldrich), and ertapenem (Merck & Co., Inc, Kenilworth, NJ, USA) against cloned E. coli BL21 (DE3) was assessed using the agar dilution technique in Mueller-Hinton agar (Difco Laboratories Inc., Detroit, MI, USA) including 1 mM IPTG with an inoculum of 10^5 CFU per spot. The PCR products were double-digested with NdeI and XhoI for the HRV-1 and NcoI and XhoI for the HRVM-1, and the digested DNAs were cloned into corresponding restriction enzyme-digested pET-28a(+) or pET-30a(+) vectors (Novagen, Madison, WI, USA). Recombinant plasmids [pET-30a(+)/blaHRV-1-His6 and pET-28a(+)/blaHRVM-1-His6] were transformed into E. coli BL21 (DE3) (Invitrogen, Carlsbad, CA, USA).

[2] = test system: T2, E. coli BL21 (DE3)-pET-30a(+)-HRV-1; test: microbe, parasite or virus in culture; design: species or system Escherichia coli BL21 (DE3) transformants; agar dilution MIC on Mueller-Hinton agar with 1 mM IPTG; settings: Escherichia coli, HRV1, read-out: MIC (μg/mL) for E. coli strain / E. coli BL21 (DE3)-pET-30a(+)-HRV-1
T2 construct: BL21 (DE3) pET-30a(+)/blaHRV-1-His6 transformant expressing HRV-1 beta-lactamase
Description: as §1

[3] = test system: T3, HRV-1; test: UV spectrophotometric beta-lactam hydrolysis, steady-state kinetics; assay type: biochemical; settings: 10 mM MES pH 6.8, 30 °C, 20 μg/mL BSA
T3 construct: gene blaHRV-1; expressed in E. coli BL21(DE3) from pET-30a(+)/blaHRV-1-His6 (NdeI/XhoI); His6 tag removal by enterokinase stated; purified

[4] = test system: T4, HRVM-1; test: as above; assay type: biochemical; settings: 50 mM MES pH 7.0, 100 μM ZnCl2, 100 μg/mL BSA, 30 °C
T4 construct: gene blaHRVM-1; expressed in E. coli BL21(DE3) from pET-28a(+)/blaHRVM-1-His6 (NcoI/XhoI); His6 tag removal by enterokinase stated; purified
Excerpt: UV spectrophotometric beta-lactam hydrolysis, steady-state kinetics on HRVM-1 | the kcat/km of HRVM-1 for imipenem

| SMILES | MIC [1] [µg/mL] | MIC [2] [µg/mL] | Km [3] [µM] | Km [4] [µM] |
| --- | --- | --- | --- | --- |
| CC1(C)S[C@@H]2[C@H](NC(=O)[C@H](N)c3ccccc3)C(=O)N2[C@H]1C(=O)O [Ampicillin] | 32 (≈ 91.6 µM) | 64 (≈ 183 µM) |  |  |
| C[C@H]1[C@H](NC(=O)/C(=N\OC(C)(C)C(=O)O)c2csc(N)n2)C(=O)N1S(=O)(=O)O [Aztreonam] | 8 (≈ 18.4 µM) | 8 (≈ 18.4 µM) |  |  |
| CC1(C)S[C@@H]2[C@H](NC(=O)Cc3ccccc3)C(=O)N2[C@H]1C(=O)O [Benzylpenicillin] | 256 (≈ 766 µM) | 512 (≈ 1530 µM) |  |  |
| CO/N=C(\C(=O)N[C@@H]1C(=O)N2C(C(=O)[O-])=C(C[N+]3(C)CCCC3)CS[C@H]12)c1csc(N)n1 [Cefepime] | 4 (≈ 8.32 µM) | 4 (≈ 8.32 µM) |  |  |
| CO[C@@]1(NC(=O)Cc2cccs2)C(=O)N2C(C(=O)O)=C(COC(N)=O)CS[C@@H]21 [Cefoxitin] | 4 (≈ 9.36 µM) | 4 (≈ 9.36 µM) |  |  |
| CC(=O)OCC1=C(C(=O)O)N2C(=O)[C@@H](NC(=O)Cc3cccs3)[C@H]2SC1 [Cephalothin] | 32 (≈ 80.7 µM) | 32 (≈ 80.7 µM) |  |  |
| Cc1onc(-c2ccccc2Cl)c1C(=O)N[C@@H]1C(=O)N2[C@@H]1SC(C)(C)[C@@H]2C(=O)O [Cloxacillin] | 128 (≈ 294 µM) | 256 (≈ 587 µM) |  |  |
| C[C@@H](O)[C@H]1C(=O)N2C(C(=O)O)=C(S[C@@H]3CN[C@H](C(=O)Nc4cccc(C(=O)O)c4)C3)[C@H](C)[C@H]12 [Ertapenem] | 0.5 (≈ 1.05 µM) | 0.5 (≈ 1.05 µM) |  |  |
| C[C@@H](O)[C@H]1C(=O)N2C(C(=O)O)=C(S[C@@H]3CN[C@H](C(=O)N(C)C)C3)[C@H](C)[C@H]12 [Meropenem] | 0.5 (≈ 1.3 µM) | 0.5 (≈ 1.3 µM) |  |  |
| Cc1onc(-c2ccccc2)c1C(=O)N[C@@H]1C(=O)N2[C@@H]1SC(C)(C)[C@@H]2C(=O)O [Oxacillin] | 128 (≈ 319 µM) | 256 (≈ 638 µM) |  |  |
| CCN1CCN(C(=O)N[C@@H](C(=O)N[C@@H]2C(=O)N3[C@@H]2SC(C)(C)[C@@H]3C(=O)O)c2ccccc2)C(=O)C1=O [Piperacillin] | 32 (≈ 61.8 µM) | 64 (≈ 124 µM) |  |  |
| CC1(C)S[C@@H]2[C@H](NC(=O)[C@H](C(=O)O)c3ccsc3)C(=O)N2[C@H]1C(=O)O [Ticarcillin] | 32 (≈ 83.2 µM) | 32 (≈ 83.2 µM) |  |  |
| CO/N=C(\C(=O)N[C@@H]1C(=O)N2C(C(=O)O)=C(COC(C)=O)CS[C@H]12)c1csc(N)n1 [cefotaxime] | 8 (≈ 17.6 µM) | 8 (≈ 17.6 µM) | 11.74 ± 0.01 |  |
| CC(C)(O/N=C(\C(=O)N[C@@H]1C(=O)N2C(C(=O)[O-])=C(C[n+]3ccccc3)CS[C@H]12)c1csc(N)n1)C(=O)O [ceftazidime] | 8 (≈ 14.6 µM) | 8 (≈ 14.6 µM) | 12.15 ± 0.02 |  |
| C[C@@H](O)[C@H]1C(=O)N2C(C(=O)O)=C(SCCN=CN)C[C@H]12 [imipenem] | 0.5 (≈ 1.67 µM) | 0.5 (≈ 1.67 µM) |  | 5.42 ± 0.01 |
